Results from publication PMC6608980, “The lectin-specific activity of Toxoplasma gondii microneme proteins 1 and 4 binds Toll-like receptor 2 and 4 N-glycans to regulate innate immune priming” (PLoS Pathogens, 2019).

Legend:
[1] = molecular target: T1, rMIC4 (Toxoplasma gondii, UniProt Q9XZH7); experiment: microplate sugar-inhibition of binding to coated asialofetuin, antibody detection; details: 25 °C, 2 h; competes with asialofetuin glycans at the carbohydrate-recognition domain
T1 construct: gene MIC4
T1 sequence (Q9XZH7 26-580): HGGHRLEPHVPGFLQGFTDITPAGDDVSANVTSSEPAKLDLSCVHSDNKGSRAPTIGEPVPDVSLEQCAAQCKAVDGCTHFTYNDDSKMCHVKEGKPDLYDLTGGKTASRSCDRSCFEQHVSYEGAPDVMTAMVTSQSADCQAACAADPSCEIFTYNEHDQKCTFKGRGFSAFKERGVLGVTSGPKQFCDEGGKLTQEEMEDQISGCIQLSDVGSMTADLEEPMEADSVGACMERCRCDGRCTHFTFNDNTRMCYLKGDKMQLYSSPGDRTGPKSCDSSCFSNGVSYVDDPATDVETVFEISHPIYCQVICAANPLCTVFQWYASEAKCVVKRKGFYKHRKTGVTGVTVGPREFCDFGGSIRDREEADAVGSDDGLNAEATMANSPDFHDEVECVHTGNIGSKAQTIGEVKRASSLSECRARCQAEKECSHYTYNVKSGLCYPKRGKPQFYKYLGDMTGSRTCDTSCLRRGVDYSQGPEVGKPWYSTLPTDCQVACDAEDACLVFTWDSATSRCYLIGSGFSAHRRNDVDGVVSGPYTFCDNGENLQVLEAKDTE

[2] = molecular target: T2, rMIC1 (Toxoplasma gondii, UniProt A0A125YMF8); experiment: microplate sugar-inhibition of binding to coated fetuin, antibody detection; details: 25 °C, 2 h; competes with fetuin glycans at the carbohydrate-recognition domain
T2 construct: gene MIC1
T2 sequence (A0A125YMF8 entry or part of it): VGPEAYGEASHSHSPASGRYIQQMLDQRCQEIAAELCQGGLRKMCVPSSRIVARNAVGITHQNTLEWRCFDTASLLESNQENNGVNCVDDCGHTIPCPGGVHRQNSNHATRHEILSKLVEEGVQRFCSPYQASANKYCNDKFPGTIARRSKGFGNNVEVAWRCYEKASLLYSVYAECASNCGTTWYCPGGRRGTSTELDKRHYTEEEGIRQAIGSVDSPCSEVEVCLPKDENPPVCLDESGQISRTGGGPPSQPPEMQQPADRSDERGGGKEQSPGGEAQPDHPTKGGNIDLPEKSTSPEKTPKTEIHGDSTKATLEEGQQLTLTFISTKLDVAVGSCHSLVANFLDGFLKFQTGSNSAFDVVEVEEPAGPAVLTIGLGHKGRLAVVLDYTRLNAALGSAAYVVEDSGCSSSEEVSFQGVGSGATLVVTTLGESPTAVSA

SMILES | microplate sugar-inhibition of binding to coated asialofetuin, antibody detectio [1] | microplate sugar-inhibition of binding to coated fetuin, antibody detection [2]
CC(=O)N[C@H]1C(O)O[C@H](CO)[C@@H](O)[C@@H]1O[C@@H]1O[C@H](CO)[C@H](O)[C@H](O)[C@H]1O (some centres unmarked) [lacto-N-biose] | lacto-N-biose inhibited the binding of rMIC4 to asialofetuin | 
CC(=O)N[C@H]1[C@H]([C@H](O)[C@H](O)CO)O[C@@](O[C@H]2[C@@H](O)[C@@H](CO)O[C@@H](O[C@H]3[C@H](O)[C@@H](O)C(O)O[C@@H]3CO)[C@@H]2O)(C(=O)O)C[C@@H]1O (stereo partly drawn) [α(2–3)-sialyllactose] |  | Sialyllactose inhibited the binding of rMIC1 to fetuin
